Patent publication US20240117005A1, “NOVEL BICYCLIC PEPTIDES” (THE COUNCIL OF THE QUEENSLAND INSTITUTE OF MEDICAL RESEARCH, priority 2021, published 2024)

Experiments:
MCF-7 cells = assay: RNA-seq differential expression, DL-2 vs. Stimulated; format: cell-based, human; conditions: MCF-7, DL-2 vs. Stimulated (PMA)
Excerpt: RNA-sequencing (RNA seq) data were obtained from human breast cancer cell line MCF-7 with and without DL-2 treatment. A total of 9 samples from […] experimental groups were collected, as follows: • Control (non-stimulated control, Ctrl) (n=3); • Stimulated (PMA stimulated control) (n=3); • DL-2 (treated with DL-2 and stimulated with PMA) (n=3); For the DL-2 treatment group, the MCF-7 cells were exposed to DL-2 first, then stimulated with PMA thereafter. RNA-seq data were generated, fastq data were downloaded to the QIMR Berghofer server, and then archived to the HSM by Scott Wood. Sequence reads were trimmed for adapter sequences using Cutadapt (version 1.9; Martin (2011)) and aligned using STAR (version 2.5.2a; Dobin et al. (2013)) to the GRCh37 assembly with the gene, transcript, and exon features of Ensembl (release 70) gene model. Quality control metrics were computed using RNA-SeQC (version 1.1.8; DeLuca et al. (2012)) and expression was estimated using RSEM (version 1.2.30; Li and Dewey (2011)). In our analysis, we corrected for library size by dividing each sample's gene count by million reads mapped. This procedure is a common approach known as counts per million (CPM). We further corrected for differences in RNA composition using a method proposed by Robinson and Oshlack (2010a) called trimmed mean of M values (TMM). We used the function calcNormFactors( ) from the edgeR package (Robinson, McCarthy, and Smyth (2010b)) to obtain TMM factors and used these to correct for differences in RNA composition. Differential expression (DE) analysis was performed using the R package edgeR (Robinson, McCarthy, and Smyth (2010b)). Note that the inputs for DE analysis are the filtered but not normalised read counts, since edgeR performs normalisation (library size and RNA composition) internally. The […]( ) function was used to fit a quasi-likelihood negative binomial generalised log-linear model to the read counts for each gene. Using the […]( ) function, we conducted gene-wise empirical Bayes quasi-likelihood F-tests for a given contrast. As per the edgeR user's guide, “the quasi-likelihood method is highly recommended for differential expression analyses of bulk RNA-seq data [versus the likelihood ratio test] as it gives stricter error rate control by accounting for the uncertainty in dispersion estimation”.

PDL1-PTM1 and IMPα1 = target: T1, PDL1-PTM1 and IMPα1 (Homo sapiens, UniProt P52292); assay: Importin-α pathway screening assay (PCC co-localisation); format: cell-based
T1 construct: endogenous in cells; host or cells: MDA-MB-231
Protocol: MDA-MB-231 cells were treated with DL-2 for 4 to 96 hours or control peptide scramble and were permeabilized probed a mouse anti-IMPα1, rabbit anti-PDL1 and visualized with a donkey anti-rabbit secondary antibody conjugated to Alexa Fluor 647 or a donkey anti-mouse secondary antibody conjugated to Alexa Fluor 568. Cover slips were mounted on glass microscope slides with Prolong nucleus glass Antifade reagent (Life Technologies). PDL1 and IMPα1 digital images were analyzed using ImageJ software (ImageJ, NIH, Bethesda, MD, USA) to determine the mean fluorescent intensity (mean FI). Graphs represent the mean FI of IMPα1. Graphs also depict the PCC of PDL1/IMPα1 using ImageJ software with automatic thresholding and manual selection of regions of interest (ROIs) specific for cell nuclei to calculate the Pearson's co-efficient correlation (PCC) for each pair of antibodies. PCC values range from: −1=inverse of co-localization.

[1] = tested on: PKCθ, LSD1, p65, C-Rel, SET, pSTAT3; assay: Determination of nuclear-associated proteins; format: cell-based, human; conditions: MDA-MB-231, 10 μM
Protocol: MDA-MB-231 cells were treated with DL-2 with concentration of 10 μM. MDA-MB-231 cells were treated with DL-2 or control and were permeabilised before being probed with the antibodies specific for PKCθ, LSD1, p65, C-Rel, SET, pSTAT3. Cover slips were mounted on glass microscope slides with ProLong nucblue glass Antifade reagent (Life Technologies). Digital images were analysed using ImageJ software (ImageJ, NIH, Bethesda, MD, USA) and graphs represent the mean fluorescence intensity in the nucleus or the cytoplasm compartments with significant differences calculated as per Mann-Whitney pairwise comparison.

## CCCCCCCCCCCCCC(=O)NC(C)C(=O)NC1CSCc2cc3cc(c2)CSC[C@H](NC(=O)[C@H](Cc2ccccc2)NC(=O)[C@H](C(C)CC)NC(=O)[C@H](Cc2ccccc2)NC(=O)[C@H]([C@@H](C)O)NC(=O)C(CC(C)C)NC1=O)C(=O)N[C@@H](CCCNC(C)=N)C(=O)N[C@@H](CC(C)C)C(=O)N[C@@H](CCCNC(=N)N)C(=O)N[C@@H](CCCCN)C(=O)NCC(=O)N[C@@H](CCCNC(=N)N)C(=O)NC(C(=O)N[C@@H](CCSC)C(=O)NC(CCSC)C(=O)N[C@@H](CC(=O)O)C(=O)NC(C(=O)N[C@@H](CCCCN)C(=O)NC(CCCCN)C(=O)O)C(C)C)CSC3 (mixture of isomers) [DL-2]
MCF-7 cells
  logFC A2M: 1.461
  logFC AKR1C1: −1.324
  logFC ALDH1A3: −0.9248
  logFC ATP6V0B: 0.647
  logFC B3GAT3: 0.8186
  logFC BSCL2: 0.9849
  logFC C19orf10: 0.7917
  logFC CAMSAP2: −0.7468
  logFC CD99: 0.6829
  logFC CDKN2B: −0.5982
  logFC CHPF: 0.6073
  logFC CTNNAL1: −0.5943
  logFC CTSD: 1.079
  logFC CXCL12: 1.155
  logFC ELF1: −0.7207
  logFC ENTPD1: 0.8956
  logFC ETV3: −0.6424
  logFC FILIP1L: −0.7563
  logFC FOXN3: −0.75
  logFC IFIT2: −1.213
  logFC IGFBP2: 0.7385
  logFC IGFBP4: 0.6164
  logFC INPP4B: −0.6381
  logFC KIAA1324: 0.6324
  logFC KLHL5: −1.028
  logFC MANF: 0.8172
  logFC MMP9: −1.43
  logFC MOB1A: −0.6723
  logFC MUC1: 0.9921
  logFC NEDD9: −0.7516
  logFC NEU1: 0.6165
  logFC PPIB: 0.8358
  logFC PRDX4: 0.6511
  logFC QKI: −0.8595
  logFC RAI14: −0.8091
  logFC SERPINA3: 1.008
  logFC SGCG: 1.126
  logFC SIRT1: −0.7444
  logFC SLC7A11: −0.8545
  logFC STC1: 0.7265
  logFC TACC1: −0.6077
  logFC TAPBP: 0.5968
  logFC TBC1D5: −0.897
  logFC TCN1: 2.029
  logFC TFF1: 1.253
  logFC TMED3: 0.6673
  logFC TXNRD1: −0.7667
  logFC ZMYND11: −2.883
  logFC ZNF267: −0.6577
PDL1-PTM1 and IMPα1; MDA-MB-231
  nuclear expression of IMPα1: No significant effect
PDL1-PTM1 and IMPα1; MDA-MB-231, up to 96 hours
  PCC or degree of co-localization of PDL1-PTM1 and IMPα1: significantly impair
[1]
  off-target effects on nuclear proteins (PKCθ, LSD1, p65, C-Rel, SET, pSTAT3): No off-target effects were observed
